{
  "source": "ChEMBL document CHEMBL1201862",
  "about": "“PubChem BioAssay data set” (2004)",
  "assay_in_all_cases": "NCI tumour cell line growth inhibition, 48 h",
  "key": {"[1]": {"test_system": "SNB-75"}, "[2]": {"test_system": "OVCAR-4"}, "[3]": {"test_system": "NCI-H23"}, "[4]": {"test_system": "SF-539"}, "[5]": {"test_system": "OVCAR-3"}, "[6]": {"test_system": "SNB-19"}, "[7]": {"test_system": "HCC 2998"}, "[8]": {"test_system": "XF498"}, "[9]": {"test_system": "SK-MEL-28"}, "[10]": {"test_system": "SK-MEL-2"}, "[11]": {"test_system": "HOP-92"}, "[12]": {"test_system": "COLO 205"}, "[13]": {"test_system": "SNB-78"}, "[14]": {"test_system": "OVCAR-5"}, "[15]": {"test_system": "MCF7"}, "[16]": {"test_system": "KM-20L2"}, "[17]": {"test_system": "A549"}, "[18]": {"test_system": "K562"}, "[19]": {"test_system": "IGROV-1"}, "[20]": {"test_system": "U-251"}, "[21]": {"test_system": "UACC-62"}, "[22]": {"test_system": "MOLT-4"}, "[23]": {"test_system": "NCI-H460"}, "[24]": {"test_system": "NCI-H226"}, "[25]": {"test_system": "RPMI-8226"}, "[26]": {"test_system": "HL-60"}, "[27]": {"test_system": "DMS-273"}, "[28]": {"test_system": "UACC-257"}, "[29]": {"test_system": "SW-620"}, "[30]": {"test_system": "SF-268"}, "[31]": {"test_system": "SN12C"}, "[32]": {"test_system": "EKVX"}, "[33]": {"test_system": "HOP-62"}, "[34]": {"test_system": "SF-295"}, "[35]": {"test_system": "KM12"}, "[36]": {"test_system": "CAKI-1"}, "[37]": {"test_system": "HCT-15"}, "[38]": {"test_system": "DLD-1"}, "[39]": {"test_system": "HCT-116"}, "[40]": {"test_system": "LOX IMVI"}, "[41]": {"test_system": "OVCAR-8"}, "[42]": {"test_system": "HOP-18"}, "[43]": {"test_system": "SK-MEL-5"}, "[44]": {"test_system": "A498"}, "[45]": {"test_system": "NCI-H522"}, "[46]": {"test_system": "HT-29"}, "[47]": {"test_system": "RXF 393"}, "[48]": {"test_system": "CCRF-CEM"}, "[49]": {"test_system": "UO-31"}, "[50]": {"test_system": "M19-MEL"}, "[51]": {"test_system": "DMS-114"}, "[52]": {"test_system": "NCI/ADR-RES"}, "[53]": {"test_system": "M14"}, "[54]": {"test_system": "SR"}, "[55]": {"test_system": "LXFL 529"}},
  "note": "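Test compounds were applied to cells in 96-well plates for 48 hours at 5 doses. At the GI50, growth is halved.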 Active and inactive are the calls of the source. No stated cut-off is given here; in the data, active = GI50 up to about 1.1 µM and inactive = higher.",
  "data": [
    {"smiles": "CC1=C2C(O)C(C(C)C(=O)NCC(C)C)CCC2(C)C=CC1=O", "note": "(stereo not drawn)", "values": [
      {"measurement": "GI50", "setting": "[1]", "result": "> 100 µM (inactive)"},
      {"measurement": "GI50", "setting": "[2]", "result": "> 100 µM (inactive)"},
      {"measurement": "GI50", "setting": "[3]", "result": "> 100 µM (inactive)"},
      {"measurement": "GI50", "setting": "[4]", "result": "> 100 µM (inactive)"},
      {"measurement": "GI50", "setting": "[5]", "result": "> 100 µM (inactive)"},
      {"measurement": "GI50", "setting": "[6]", "result": "> 100 µM (inactive)"},
      {"measurement": "GI50", "setting": "[7]", "result": "> 100 µM (inactive)"},
      {"measurement": "GI50", "setting": "[8]", "result": "> 100 µM (inactive)"},
      {"measurement": "GI50", "setting": "[9]", "result": "> 100 µM (inactive)"},
      {"measurement": "GI50", "setting": "[10]", "result": "> 100 µM (inactive)"},
      {"measurement": "GI50", "setting": "[11]", "result": "> 100 µM (inactive)"},
      {"measurement": "GI50", "setting": "[12]", "result": "> 100 µM (inactive)"},
      {"measurement": "GI50", "setting": "[13]", "result": "> 100 µM (inactive)"},
      {"measurement": "GI50", "setting": "[14]", "result": "> 100 µM (inactive)"},
      {"measurement": "GI50", "setting": "[15]", "result": "> 100 µM (inactive)"},
      {"measurement": "GI50", "setting": "[16]", "result": "> 100 µM (inactive)"},
      {"measurement": "GI50", "setting": "[17]", "result": "> 100 µM (inactive)"},
      {"measurement": "GI50", "setting": "[18]", "result": "> 100 µM (inactive)"},
      {"measurement": "GI50", "setting": "[19]", "result": "> 100 µM (inactive)"},
      {"measurement": "GI50", "setting": "[20]", "result": "> 100 µM (inactive)"},
      {"measurement": "GI50", "setting": "[21]", "result": "> 100 µM (inactive)"},
      {"measurement": "GI50", "setting": "[22]", "result": "> 100 µM (inactive)"},
      {"measurement": "GI50", "setting": "[23]", "result": "> 100 µM (inactive)"},
      {"measurement": "GI50", "setting": "[24]", "result": "> 100 µM (inactive)"},
      {"measurement": "GI50", "setting": "[25]", "result": "> 100 µM (inactive)"},
      {"measurement": "GI50", "setting": "[26]", "result": "> 100 µM (inactive)"},
      {"measurement": "GI50", "setting": "[27]", "result": "> 100 µM (inactive)"},
      {"measurement": "GI50", "setting": "[28]", "result": "> 100 µM (inactive)"},
      {"measurement": "GI50", "setting": "[29]", "result": "> 100 µM (inactive)"},
      {"measurement": "GI50", "setting": "[30]", "result": "> 100 µM (inactive)"},
      {"measurement": "GI50", "setting": "[31]", "result": "> 100 µM (inactive)"},
      {"measurement": "GI50", "setting": "[32]", "result": "> 100 µM (inactive)"},
      {"measurement": "GI50", "setting": "[33]", "result": "> 100 µM (inactive)"},
      {"measurement": "GI50", "setting": "[34]", "result": "> 100 µM (inactive)"},
      {"measurement": "GI50", "setting": "[35]", "result": "> 100 µM (inactive)"},
      {"measurement": "GI50", "setting": "[36]", "result": "> 100 µM (inactive)"},
      {"measurement": "GI50", "setting": "[37]", "result": "> 100", "unit": "µM"},
      {"measurement": "GI50", "setting": "[38]", "result": "> 100 µM (inactive)"},
      {"measurement": "GI50", "setting": "[39]", "result": "> 100 µM (inactive)"},
      {"measurement": "GI50", "setting": "[40]", "result": "> 100 µM (inactive)"},
      {"measurement": "GI50", "setting": "[41]", "result": "> 100 µM (inactive)"},
      {"measurement": "GI50", "setting": "[42]", "result": "> 100 µM (inactive)"},
      {"measurement": "GI50", "setting": "[43]", "result": "> 100 µM (inactive)"},
      {"measurement": "GI50", "setting": "[44]", "result": "> 100 µM (inactive)"},
      {"measurement": "GI50", "setting": "[45]", "result": "> 100 µM (inactive)"},
      {"measurement": "GI50", "setting": "[46]", "result": "> 100 µM (inactive)"},
      {"measurement": "GI50", "setting": "[47]", "result": "> 100 µM (inactive)"},
      {"measurement": "GI50", "setting": "[48]", "result": "> 100 µM (inactive)"},
      {"measurement": "GI50", "setting": "[49]", "result": "> 100 µM (inactive)"},
      {"measurement": "GI50", "setting": "[50]", "result": "> 100 µM (inactive)"},
      {"measurement": "GI50", "setting": "[51]", "result": "> 100 µM (inactive)"},
      {"measurement": "GI50", "setting": "[52]", "result": "> 100 µM (inactive)"}
    ]},
    {"smiles": "CC1=C[P+](Cc2ccccc2)(c2ccccc2)CC1", "note": "(stereo not drawn)", "values": [
      {"measurement": "GI50", "setting": "[1]", "result": "61.1 µM (inactive)"},
      {"measurement": "GI50", "setting": "[2]", "result": "> 100 µM (inactive)"},
      {"measurement": "GI50", "setting": "[3]", "result": "97.1 µM (inactive)"},
      {"measurement": "GI50", "setting": "[5]", "result": "43.2 µM (inactive)"},
      {"measurement": "GI50", "setting": "[10]", "result": "78.7 µM (inactive)"},
      {"measurement": "GI50", "setting": "[12]", "result": "31.7 µM (inactive)"},
      {"measurement": "GI50", "setting": "[13]", "result": "> 100 µM (inactive)"},
      {"measurement": "GI50", "setting": "[18]", "result": "93.8 µM (inactive)"},
      {"measurement": "GI50", "setting": "[21]", "result": "64.3 µM (inactive)"},
      {"measurement": "GI50", "setting": "[25]", "result": "24.1 µM (inactive)"},
      {"measurement": "GI50", "setting": "[26]", "result": "30.1 µM (inactive)"},
      {"measurement": "GI50", "setting": "[27]", "result": "80.9 µM (inactive)"},
      {"measurement": "GI50", "setting": "[28]", "result": "27.8 µM (inactive)"},
      {"measurement": "GI50", "setting": "[53]", "result": "71.6 µM (inactive)"},
      {"measurement": "GI50", "setting": "[32]", "result": "80.2 µM (inactive)"},
      {"measurement": "GI50", "setting": "[34]", "result": "> 100 µM (inactive)"},
      {"measurement": "GI50", "setting": "[35]", "result": "85.3 µM (inactive)"},
      {"measurement": "GI50", "setting": "[38]", "result": "> 100 µM (inactive)"},
      {"measurement": "GI50", "setting": "[54]", "result": "74.3 µM (inactive)"},
      {"measurement": "GI50", "setting": "[40]", "result": "77.3 µM (inactive)"},
      {"measurement": "GI50", "setting": "[43]", "result": "30.9 µM (inactive)"},
      {"measurement": "GI50", "setting": "[45]", "result": "67.5 µM (inactive)"},
      {"measurement": "GI50", "setting": "[46]", "result": "65.2 µM (inactive)"},
      {"measurement": "GI50", "setting": "[55]", "result": "37.7 µM (inactive)"},
      {"measurement": "GI50", "setting": "[50]", "result": "31.8 µM (inactive)"},
      {"measurement": "GI50", "setting": "[51]", "result": "28.6 µM (inactive)"}
    ]}
  ]
}
